“Also recorded” adds a separate entry of the source.
What was measured:
CB1 wild-type receptor = CB1 wild-type receptor (Homo sapiens, UniProt P21554); experiment: [35S]GTPγS binding assay; format: biochemical
CB1 [1] = biological target: T1, CB1 (Homo sapiens, UniProt P21554); details: for time of maximal ERK1/2 phosphorylation: 0.5 µM CP55,940 or 3.2 µM ICAM-b
CB1 [2] = biological target: T1, CB1; experiment: Radioligand binding assay, cooperativity with [3H]CP55,940; details: for cooperativity factor (α): from [3H]CP55,940 binding curves, membranes of HEK293 cells expressing CB1
CB1 [3] = biological target: T1, CB1; experiment: Radioligand binding assay, cooperativity with [3H]SR141716A; details: for effect on [3H]SR141716A binding: in the concentration range tested
[4] = Solubility in organic solvents; format: physicochemical; details: except tetrahydrofuran (THF)
CB1 [5] = biological target: T1, CB1; format: binding; details: in the presence of ICAM-b

T1 sequence (P21554 whole entry): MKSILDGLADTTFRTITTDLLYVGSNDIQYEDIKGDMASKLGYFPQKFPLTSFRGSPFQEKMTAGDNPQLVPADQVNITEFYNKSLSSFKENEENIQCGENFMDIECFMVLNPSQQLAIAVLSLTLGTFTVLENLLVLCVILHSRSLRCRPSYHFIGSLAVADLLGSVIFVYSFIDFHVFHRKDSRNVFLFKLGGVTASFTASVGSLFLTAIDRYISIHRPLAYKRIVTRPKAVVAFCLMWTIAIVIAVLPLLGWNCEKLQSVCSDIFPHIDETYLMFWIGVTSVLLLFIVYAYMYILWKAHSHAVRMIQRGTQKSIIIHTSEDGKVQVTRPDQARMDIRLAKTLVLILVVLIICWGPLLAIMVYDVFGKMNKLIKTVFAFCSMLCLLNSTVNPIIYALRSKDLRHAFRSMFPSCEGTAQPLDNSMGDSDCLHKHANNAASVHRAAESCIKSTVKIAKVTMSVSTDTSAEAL
CB1 wild-type receptor, sequence (P21554 whole entry): as above

SMILES	Emax of CP55,940-induced [35S]GTPγS binding (CB1 wild-type receptor; in the absence of ICAM-b)	time of maximal ERK1/2 phosphorylation (CB1 [1]; HEK293 cells expressing CB1)	Kb (CB1 [2])	cooperativity factor (α) (CB1 [2])	effect on [3H]SR141716A binding (CB1 [3])	solubility in common organic solvents [4]	cooperativity factor (α) (CB1 [3]; [3H]SR141716A as tracer, membranes of HEK293 cells expressing CB1)	Bmax changes for CP55,940 and SR141716A (CB1 [5])	inhibition of CP55,940-induced [35S]GTPγS binding (CB1 wild-type receptor; 3.2 µM ICAM-b)	[35S]GTPγS binding level (CB1 wild-type receptor; 3.2 µM ICAM-b, basal level 50.1 fmol/mg)	Emax of CP55,940-induced [35S]GTPγS binding (CB1 wild-type receptor; in the presence of 0.32 µM ICAM-b)	Emax of CP55,940-induced [35S]GTPγS binding (CB1 wild-type receptor; in the presence of 1 µM ICAM-b)	transient ERK1/2 phosphorylation compared with CP55,940 alone (CB1 [1]; ICAM-b alone, control siRNA, HEK293 cells expressing CB1)	effect of β-arrestin 2 siRNA on patterns of ERK1/2 phosphorylation (CB1 [1]; compared to control siRNA transfection)
CCCCCCC(C)(C)c1ccc([C@@H]2C[C@H](O)CC[C@H]2CCCO)c(O)c1 [CP55,940, (1R,3R,4R)-3-[2-hydroxy-4-(1,1-dimethylheptyl)-phenyl]-4-(3-hydroxypropyl)cyclohexan-1-ol, reference compound]	98.9 fmol/mg	5 min	–	–	–	–	–	–	–	–	–	–	–	–
CCc1c(C(=O)NCCc2ccc(N3CCCCC3)cc2)n(C)c2ccc(Cl)cc12 [ICAM-a, 5-chloro-3-ethyl-1-methyl-N-(4-(piperidin-1-yl)phenethyl)-1H-indole-2-carboxamide]	–	–	5.78 µM	11.9	little effect; also recorded: no effect	poor	–	–	–	–	–	–	–	–
CCCCCc1c(C(=O)NCCc2ccc(N3CCCCC3)cc2)[nH]c2ccc(Cl)cc12 [ICAM-b, 5-chloro-3-pentyl-N-(4-(piperidin-1-yl)phenethyl)-1H-indole-2-carboxamide]	–	5 min	–	17.6	substantial decrease	poor	0.11	Negligible	complete inhibition	42.1 fmol/mg	78.7 fmol/mg	59.3 fmol/mg	larger increase	did not alter
